Reference: patent US20060199841A1, “Pharmaceutical combination for the treatment of spasticity and/or pain” (priority 2003, published 2006)
Like-named read-outs stand apart in the source and are kept apart here.

Experiments:
[1] = system: neuropathic pain (allodynia); experiment: Rat allodynia model (Bennet-Xie model, von Frey filaments); assay type: in vivo; conditions: for analgesic effect in the allodynia model (in words): i.p., dextromethorphan 10 mg/kg alone or in combined treatment with tolperisone
Description: In our experiments, we applied the Bennet-Xie model (G. J. Bennett, Y.-K. Xie, Pain 33: 87-107; 1988) to test the effect of the combination against neuropathic pain. We measured the threshold of the pain reaction with von Frey filaments calibrated to 0.9, 1.2, 1.8, 3.6, 5.4, 6.9, 8.9, 12 and 20 g.

[2] = system: monosynaptic reflex, hemisected spinal cord preparation; experiment: Spinal reflex inhibitory action in vitro, hemisected spinal cord preparation
Method: Spinal reflex Inhibitory Action, In Vitro
Our experiments were performed according to the methods described by Otsuka and Konishi (Otsuka and Konishi, Nature 1974. 252, 733.), with slight modifications (Kocsis et al., Brain Res. Bull. 2003. 60, 81.).
This experiment is suitable for testing central muscle relaxant activity. In the tremor test the efficacy of drugs may be considerably influenced by metabolic and pharmacokinetic factors, therefore we used an in vitro model to investigate the pharmacodynamic interaction between the components of the combination without the interference of the above factors.
We determined the dose-response curve for monosynaptic reflex inhibition of dextromethorphan alone, and in the presence of tolperisone or eperisone. In the control study we measured the effect of dextromethorphan at 0.25; 0.5 and 1 μM. In other experiments we added tolperisone (25 μM) or eperisone (20 μM) to the perfusion solution, and taking the equilibrium responses in these conditions as references, we measured the reflex inhibitory action of dextromethorphan. […] The potentiating effect of eperisone has been even more expressed (see Table 4.).

[3] = system: pain; conditions: cited from earlier work
[4] = system: GYKI 20039 induced tremor; experiment: Tremor test in mice (GYKI 20039 induced tremor); assay type: in vivo; conditions: for ED50: Mus musculus, ip; for Tremor inhibitory effect ED50: i.p.
Description: Tremor can be induced by administration of GYKI 20039 (3-(2,6-dichlorophenyl)-2-iminothiazolidine). The method was published by Kocsis P., Tarnawa I., Kovács Gy., Szombathelyi Zs., Farkas S., 2002; Acta Pharmaceut. Hung., 72:49-61; U.S. Pat. No. 5,340,823, 1994, U.S. Pat. No. 5,198,446, JP 1992270293, EP 0468825, 1990 HU 4647.
The aim of our experiments was to decide if the effect of tolperisone is influenced by co-administration of dextromethorphan.

[5] = in humans; cited from earlier work
[6] = 15-minute pre-treatment, dose causing 50% tremor inhibition
[7] = 15-minute pre-treatment, dose causing 50% tremor inhibition, read-out: Tremor inhibitory effect ED50

Compound: COc1ccc2c(c1)[C@]13CCCC[C@@H]1[C@H](C2)N(C)CC3 (racemic) [Dextromethorphan, (+/−)-3-methoxi-17-methylmorphinan]
- Threshold value (g) mean ([1]; dextromethorphan 10 mg/kg i.p., time 0 min): 3.26 g
- Threshold value (g) mean ([1]; dextromethorphan 10 mg/kg i.p., time 10 min): 7.57 g
- Threshold value (g) mean ([1]; dextromethorphan 10 mg/kg i.p., time 20 min): 6.03 g
- analgesic effect in the allodynia model (in words) [1]: practically ineffective
- inhibition at 0.25 µM ([2]; dextromethorphan 0.25 μM alone): 20.7%
- inhibition at 0.5 µM ([2]; dextromethorphan 0.5 μM alone): 36.6%
- inhibition at 1 µM ([2]; dextromethorphan 1 μM alone): 40.9%
- IC50 ([2]; dextromethorphan alone, read-out: IC50 of dextromethorphan, reflex inhibitory activity): 1.56 µM
- effect in the treatment of chronic pain ([3]; clinical trials, Ben-Abraham and Weinbroum 2000): ineffective
- effect in an experimental human pain model ([3]; clinically acceptable dose range, Kaippula et al. 1995): no effect
- relieving acute ischemic pain ([3]; in humans, Plesan et al. 2000): without effect
- Inhibition of tremor (control %) Mean ([4]; 10 mg/kg dextromethorphan i.p.): 8 control %
- tremor inhibition (in words) ([4]; 10 mg/kg dextromethorphan, 10-minute pre-treatment): no significant tremor inhibition
- ED50 ([4]; read-out: ED50 of inhibition of the tremor): 24.4 mg/kg

Compound: Cc1ccccc1-n1c(CF)nc2ccc(N)cc2c1=O [Afloqualon]
- Tremor inhibitory effect ED50 [4, 6]: 11.1 mg/kg

Compound: NCC(CC(=O)O)c1ccc(Cl)cc1 (stereo not shown) [Baclofen]
- ED50 [4, 7]: 9.1 mg/kg

Compound: CCc1ccc(C(=O)C(C)CN2CCCCC2)cc1 (stereo not shown) [Eperisone, 2-mehyl-1-(4-ethylphenyl)-3-(1-piperidinyl)-1-propanone]
- Tremor inhibitory effect ED50 [4, 6]: 51.8 mg/kg

Compound: CC12CC3CC(C)(C1)CC(N)(C3)C2 [Memantine]
- ED50 [4, 7]: 20.5 mg/kg

Compound: Cc1ccccc1OCC(O)CO (stereo not shown) [Mephenesin]
- ED50 [4, 7]: 81.5 mg/kg

Compound: Clc1ccc2nsnc2c1NC1=NCCN1 [Tizanidine]
- ED50 [4, 7]: 0.73 mg/kg

Compound: Cc1ccc(C(=O)C(C)CN2CCCCC2)cc1 (stereo not shown) [Tolperisone, 2-mehyl-1-(4-methylphenyl)-3-(1-piperidinyl)-1-propanone]
- analgesic effect in the allodynia model (in words) [1]: significant analgesic effect
- Threshold value (g) mean ([1]; tolperisone 20 mg/kg i.p., time 0 min): 3.6 g
- Threshold value (g) mean ([1]; tolperisone 20 mg/kg i.p., time 10 min): 14.89 g
- Threshold value (g) mean ([1]; tolperisone 20 mg/kg i.p., time 20 min): 10.31 g
- Reflex Inhibition (%) ([2]; tolperisone 25 μM alone): 26.97%
- Reflex Inhibition (%) ([2]; tolperisone 50 μM alone): 48.61%
- Reflex Inhibition (%) ([2]; tolperisone 100 μM alone): 70.30%
- IC50 ([2]; tolperisone alone, sigmoid fitting, read-out: IC50 of tolperisone, reflex inhibitory activity): 52.4 µM
- Inhibition of tremor (control %) Mean ([4]; 40 mg/kg tolperisone i.p.): 27 control %
- Inhibition of tremor (control %) Mean ([4]; 60 mg/kg tolperisone i.p.): 48 control %
- Tremor inhibitory effect ED50 [4, 6]: 60.0 mg/kg
- Inhibition of tremor (%) ([4]; tolperisone 60 mg/kg i.p., dextromethorphan 0 mg/kg): 48.3%
- ED50 for the tremor inhibitory activity ([4]; tolperisone alone): 55.0 ± 7.2 mg/kg
- oral bioavailability [5]: 16-20%
